In PubChem BioAssay (NCI):
Where “and” joins values, the source holds several entries; their conditions need not be identical. Equal entries are not always repeated.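 Following 48 hours of exposure in 96-well plates, responses at five concentrations were used to interpolate endpoints linearly. GI50: concentration for 50% inhibition of growth. TGI is the concentration that stops growth completely.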

Experiments:
Assay in all cases: inhibition of tumour cell growth, NCI panel, 48 h
ACHN renal = test system: ACHN renal
HCC-2998 colon = test system: HCC-2998 colon
HCT-116 colon = test system: HCT-116 colon
HS 578T breast = test system: HS 578T breast
HT29 colon = test system: HT29 colon
NCI-H226 lung = test system: NCI-H226 lung
NCI/ADR-RES ovarian = test system: NCI/ADR-RES ovarian
SNB-75 CNS = test system: SNB-75 CNS
T-47D breast = test system: T-47D breast
U251 CNS = test system: U251 CNS

SMILES | GI50 (ACHN renal) | TGI (ACHN renal) [µM] | GI50 (HCC-2998 colon) [µM] | TGI (HCC-2998 colon) [µM] | GI50 (HCT-116 colon) | TGI (HCT-116 colon) | GI50 (HS 578T breast) | TGI (HS 578T breast) | GI50 (HT29 colon) [µM] | TGI (HT29 colon) [µM] | GI50 (NCI-H226 lung) | TGI (NCI-H226 lung) | GI50 (NCI/ADR-RES ovarian) [µM] | TGI (NCI/ADR-RES ovarian) [µM] | GI50 (SNB-75 CNS) | TGI (SNB-75 CNS) | GI50 (T-47D breast) | TGI (T-47D breast) | GI50 (U251 CNS) | TGI (U251 CNS)
O=c1oc2cc(OS(=O)(=O)c3ccccc3)ccc2c2c1CCCCC2 | > 100 µM | > 100 | 32.1 | > 100 | 3.62 µM | > 100 µM | > 100 µM | > 100 µM | 2.84 | > 100 | > 100 µM | > 100 µM | 4.53 | > 100 | 16.9 µM | > 100 µM | 3.79 µM | > 100 µM | 4.51 µM | > 100 µM
Cc1[nH]n(-c2ccccc2)c(=O)c1C(=O)c1ccccc1 | > 25 µM | > 25 | > 25 | > 25 | > 25 µM | > 25 µM | > 25 µM | > 25 µM | > 25 | > 25 | > 25 µM | > 25 µM | > 23.8 | > 25 | > 25 µM | > 25 µM | > 25 µM | > 25 µM | 16.2 µM | > 25 µM
O=c1[nH]cnc2nc(-c3ccc(N(CCCl)CCCl)cc3)[nH]c12 | 2.58 µM | 33.5 | 4.76 | > 100 | 12.6 µM | > 100 µM | 27.2 µM | > 100 µM | > 100 | > 100 | 7.13 µM | 80.6 µM | 13.1 | > 100 | 18.1 µM | 74.2 µM | 2.85 µM | > 100 µM | 20.1 µM | > 100 µM
C[C@H]1CC2=CC(=O)CC[C@]2(C)[C@H]2CC[C@@]3(C)[C@@H](CC[C@]3(C)O)[C@H]12 | 27.6 µM | > 100 | 43.8 | > 100 | 31.2 µM | > 95.2 µM | 30.7 µM | > 89 µM | 44.7 | > 100 | 30 µM | > 100 µM | 28.7 | > 86.5 | 40.2 µM | > 100 µM | 22.5 µM | 70.3 µM | 31 µM | > 100 µM
COc1cc(CC2CC(c3ccc4c(c3)OCO4)OC2=O)cc(OC)c1OC (stereo not given) | – | > 100 | – | > 100 | – | > 100 µM | – | > 100 µM | – | > 100 | – | > 100 µM | – | > 100 | – | > 100 µM | – | > 100 µM | – | > 100 µM
N#Cc1ccc2c(c1)C(=O)c1c-2n(CCCN=[N+]=[N-])c(=O)c2cc([N+](=O)[O-])ccc12 | 5.28 µM | > 50 | > 50 | > 50 | 3.91 µM | > 50 µM | > 50 µM | > 50 µM | 32.1 | > 50 | 40 µM | > 50 µM | > 50 | > 50 | 17.4 µM | > 50 µM | 8.63 µM | > 50 µM | 4.49 µM | > 50 µM
COc1cccc2ccc3c(c12)C(=O)OC31CCc2c(C)cccc21 (stereo not given) | – | 40.5 | – | > 46.4 | – | > 31.6 µM | – | > 100 µM | – | > 31.6 | – | > 31.6 µM | – | > 100 | – | 45.1 µM | – | > 100 µM | – | > 46.4 µM
CS(=O)(=O)Nc1cc(-c2ccc3ncnc(Nc4cccc(Cl)c4F)c3c2)cnc1Cl | 4.09 µM | > 100 | 1.66 | 5.01 | 4.02 µM | 19.9 µM | 0.274 µM | 2.77 µM | 3.3 | 38.4 | 2.57 µM | 18.2 µM | 7.02 | 31.8 | 0.463 µM | 7.43 µM | 0.382 µM | 10.6 µM | 2.45 µM | 14.9 µM
CC[C@H](C)[C@H](NC(=O)c1nccn1C)C(=O)N(C)[C@H](C[C@@H](OC(C)=O)c1nc(C(=O)N[C@@H](Cc2ccccc2)C[C@H](C)C(=O)OC)cs1)C(C)C | 2.06 µM | > 33.3 | 1.08 | > 33.3 | 0.724 µM | > 33.3 µM | 1.11 µM | > 33.3 µM | 1 | 11.1 | 8.51 µM | > 33.3 µM | 3.18 | > 33.3 | 0.199 µM | > 33.3 µM | > 33.3 µM | > 33.3 µM | 1.38 µM | > 33.3 µM
CC(C)(F)C[C@H](N[C@@H](c1ccc(-c2ccc(S(C)(=O)=O)cc2)cc1)C(F)(F)F)C(=O)NC1(C#N)CC1 | > 55 µM and 39.5 µM | > 100 | > 100 | > 100 | 22 µM and > 100 µM | 55 µM and > 100 µM | 13.6 µM and 21.1 µM | 55 µM and 63.9 µM | > 100 | > 100 | 16.4 µM and 23.6 µM | 55 µM and 63.6 µM | 34.1 | 55 | 7.51 µM and 16.4 µM | 29.8 µM and 39.4 µM | 35.7 µM and 99.7 µM | 55 µM and > 100 µM | 17.9 µM and 30.3 µM | 55 µM and > 100 µM
